Results published in ChEMBL document CHEMBL1649419, “Design and synthesis of pyrimidinone and pyrimidinedione inhibitors of dipeptidyl peptidase IV” (J Med Chem, 2011).

Assays:
[1] = Half life in rat liver microsomes by LC/MS analysis; type: ADME, Microsome
[2] = Half life in human liver microsomes by LC/MS analysis; type: ADME, Microsome
[3] = Volume of distribution at steady state in rat at 1.4 mg/kg, iv and 14 mg/kg, po; type: ADME, organism-based; conditions: in vivo, read-out: Vdss
[4] = Volume of distribution at steady state in dog at 0.52 mg/kg, iv and 1.8 mg/kg, po; type: ADME, organism-based, Canis lupus familiaris; conditions: in vivo, read-out: Vdss
[5] = Oral bioavailability in rat at 14 mg/kg; type: ADME, organism-based; conditions: in vivo
[6] = AUC in dog at 1.8 mg/kg, po; type: ADME, organism-based, Canis lupus familiaris; set-up: dose 1.8 mg/kg, route oral; conditions: plasma
[7] = Half life in dog at 1.8 mg/kg, po; type: ADME, organism-based, Canis lupus familiaris; set-up: dose 1.8 mg/kg, route oral; conditions: in vivo
[8] = Half life in rat at 14 mg/kg, po; type: ADME, organism-based; set-up: dose 14 mg/kg, route oral; conditions: in vivo
[9] = AUC in rat at 14 mg/kg, po; type: ADME, organism-based; set-up: dose 14 mg/kg, route oral; conditions: plasma
[10] = Oral bioavailability in dog at 1.8 mg/kg; type: ADME, organism-based, Canis lupus familiaris; conditions: in vivo
[11] = Half life in dog at 0.52 mg/kg, iv; type: ADME, organism-based, Canis lupus familiaris; set-up: dose 0.52 mg/kg, route intravenous; conditions: in vivo
[12] = Half life in rat at 1.4 mg/kg, iv; type: ADME, organism-based; set-up: dose 1.4 mg/kg, route intravenous; conditions: in vivo
[13] = Volume of distribution at steady state in rat at 0.71 mg/kg, iv and 14 mg/kg, po; type: ADME, organism-based; conditions: in vivo, read-out: Vdss
[14] = Half life in rat at 0.71 mg/kg, iv; type: ADME, organism-based; set-up: dose 0.71 mg/kg, route intravenous; conditions: in vivo
[15] = Volume of distribution at steady state in dog at 0.85 mg/kg, iv and 2.7 mg/kg, po; type: ADME, organism-based, Canis lupus familiaris; conditions: in vivo, read-out: Vdss
[16] = Oral bioavailability in dog at 2.7 mg/kg; type: ADME, organism-based, Canis lupus familiaris; conditions: in vivo
[17] = AUC in dog at 2.7 mg/kg, po; type: ADME, organism-based, Canis lupus familiaris; set-up: dose 2.7 mg/kg, route oral; conditions: plasma
[18] = Half life in dog at 0.85 mg/kg, iv; type: ADME, organism-based, Canis lupus familiaris; set-up: dose 0.85 mg/kg, route intravenous; conditions: in vivo
[19] = Half life in dog at 2.7 mg/kg, po; type: ADME, organism-based, Canis lupus familiaris; set-up: dose 2.7 mg/kg, route oral; conditions: in vivo
[20] = Volume of distribution at steady state in rat at 0.8 mg/kg, iv and 11 mg/kg, po; type: ADME, organism-based; conditions: in vivo, read-out: Vdss
[21] = Half life in rat at 0.8 mg/kg, iv; type: ADME, organism-based; set-up: dose 0.8 mg/kg, route intravenous; conditions: in vivo
[22] = Half life in rat at 11 mg/kg, po; type: ADME, organism-based; set-up: dose 11 mg/kg, route oral; conditions: in vivo
[23] = Volume of distribution at steady state in dog at 0.8 mg/kg, iv and 2.5 mg/kg, po; type: ADME, organism-based, Canis lupus familiaris; conditions: in vivo, read-out: Vdss
[24] = Half life in dog at 0.8 mg/kg, iv; type: ADME, organism-based, Canis lupus familiaris; set-up: dose 0.8 mg/kg, route intravenous; conditions: in vivo
[25] = AUC in dog at 2.5 mg/kg, po; type: ADME, organism-based, Canis lupus familiaris; set-up: dose 2.5 mg/kg, route oral; conditions: plasma
[26] = Oral bioavailability in dog at 2.5 mg/kg; type: ADME, organism-based, Canis lupus familiaris; conditions: in vivo
[27] = Oral bioavailability in rat at 11 mg/kg; type: ADME, organism-based; conditions: in vivo
[28] = AUC in rat at 11 mg/kg, po; type: ADME, organism-based; set-up: dose 11 mg/kg, route oral; conditions: plasma
[29] = Half life in dog at 2.5 mg/kg, po; type: ADME, organism-based, Canis lupus familiaris; set-up: dose 2.5 mg/kg, route oral; conditions: in vivo
[30] = Oral bioavailability in rat at 10 mg/kg; type: ADME, organism-based; conditions: in vivo
[31] = Volume of distribution at steady state in dog at 1 mg/kg, iv and 3 mg/kg, po; type: ADME, organism-based, Canis lupus familiaris; conditions: in vivo, read-out: Vdss
[32] = Half life in rat at 10 mg/kg, po; type: ADME, organism-based; set-up: dose 10 mg/kg, route oral; conditions: in vivo
[33] = Half life in rat at 2 mg/kg, iv; type: ADME, organism-based; set-up: dose 2 mg/kg, route intravenous; conditions: in vivo
[34] = Half life in dog at 3 mg/kg, po; type: ADME, organism-based, Canis lupus familiaris; set-up: dose 3 mg/kg, route oral; conditions: in vivo
[35] = AUC in dog at 3 mg/kg, po; type: ADME, organism-based, Canis lupus familiaris; set-up: dose 3 mg/kg, route oral; conditions: plasma
[36] = Volume of distribution at steady state in rat at 2 mg/kg, iv and 10 mg/kg, po; type: ADME, organism-based; conditions: in vivo, read-out: Vdss
[37] = Half life in dog at 1 mg/kg, iv; type: ADME, organism-based, Canis lupus familiaris; set-up: dose 1 mg/kg, route intravenous; conditions: in vivo
[38] = Oral bioavailability in dog at 3 mg/kg; type: ADME, organism-based, Canis lupus familiaris; conditions: in vivo
[39] = AUC in rat at 10 mg/kg, po; type: ADME, organism-based; set-up: dose 10 mg/kg, route oral; conditions: plasma
[40] = Clearance in dog at 0.90 mg/kg, iv and 2.7 mg/kg, po; type: ADME, organism-based, Canis lupus familiaris; conditions: in vivo, 0.9 mg/kg
[41] = Half life in dog at 0.90 mg/kg, iv; type: ADME, organism-based, Canis lupus familiaris; set-up: dose 0.9 mg/kg, route intravenous; conditions: in vivo, 0.9 mg/kg
[42] = Oral bioavailability in dog at 2.7 mg/kg, po; type: ADME, organism-based, Canis lupus familiaris; conditions: in vivo
[43] = Volume of distribution at steady state in dog at 0.90 mg/kg, iv and 2.7 mg/kg, po; type: ADME, organism-based, Canis lupus familiaris; conditions: in vivo, 0.9 mg/kg, read-out: Vdss
[44] = tested on: Macaca fascicularis; assay: Half life in monkey at 0.93 mg/kg, iv; conditions: cynomolgus monkey, in vivo
[45] = tested on: Macaca fascicularis; assay: Volume of distribution at steady state in monkey at 0.93 mg/kg, iv and 4.6 mg/kg, po; conditions: cynomolgus monkey, in vivo, read-out: Vdss
[46] = tested on: Macaca fascicularis; assay: Half life in monkey at 4.6 mg/kg, po; conditions: cynomolgus monkey, in vivo
[47] = AUC in monkey at 4.6 mg/kg, po; conditions: cynomolgus monkey, plasma
[48] = tested on: Macaca fascicularis; assay: in vivo; conditions: cynomolgus monkey, iv, 0.93 mg/kg
[49] = tested on: Macaca fascicularis; assay: Oral bioavailability in monkey at 4.6 mg/kg, po; conditions: cynomolgus monkey, in vivo
[50] = Oral bioavailability in monkey at 2.1 mg/kg; type: ADME, organism-based, Macaca mulatta; conditions: rhesus monkey, in vivo
[51] = AUC in monkey at 2.1 mg/kg, po; type: ADME, organism-based, Macaca mulatta; set-up: dose 2.1 mg/kg, route oral; conditions: rhesus monkey, plasma
[52] = Half life in monkey at 1.6 mg/kg, iv; type: ADME, organism-based, Macaca mulatta; set-up: dose 1.6 mg/kg, route intravenous; conditions: rhesus monkey, in vivo
[53] = Volume of distribution at steady state in monkey at 1.6 mg/kg, iv and 2.1 mg/kg, po; type: ADME, organism-based, Macaca mulatta; conditions: rhesus monkey, in vivo, read-out: Vdss
[54] = Half life in monkey at 2.1 mg/kg, po; type: ADME, organism-based, Macaca mulatta; set-up: dose 2.1 mg/kg, route oral; conditions: rhesus monkey, in vivo

## N#Cc1ccc(F)cc1Cn1c(N2CCC[C@@H](N)C2)ncc(F)c1=O
[1]
  half-life: > 3.33 h
[2]
  half-life: > 3.33 h

## N#Cc1ccc(F)cc1Cn1c(N2CCC[C@@H](N)C2)ncc(Cl)c1=O
[1]
  half-life: 2.03 h
[2]
  half-life: > 3.33 h

## N#Cc1ccc(F)cc1Cn1c(N2CCC[C@@H](N)C2)ncc(Br)c1=O
[1]
  half-life: 0.683 h
[2]
  half-life: > 3.33 h

## N#Cc1ccccc1Cn1c(N2CCC[C@@H](N)C2)cc(=O)[nH]c1=O
[1]
  half-life: > 3.33 h
[2]
  half-life: 2.15 h

## Cn1c(=O)c(Cl)c(N2CCC[C@@H](N)C2)n(Cc2ccccc2C#N)c1=O
[1]
  half-life: 0.933 h
[2]
  half-life: 2.73 h

## CCn1c(=O)cc(N2CCC[C@@H](N)C2)n(Cc2ccccc2C#N)c1=O
[1]
  half-life: 0.533 h
[2]
  half-life: > 3.33 h

## N[C@@H]1CCCN(c2cc(=O)[nH]c(=O)n2Cc2ccccc2Br)C1
[1]
  half-life: > 1.97 h
[2]
  half-life: > 3.33 h

## Cn1c(=O)cc(N2CCC[C@@H](N)C2)n(Cc2ccccc2Br)c1=O
[1]
  half-life: 1.37 h
[2]
  half-life: > 3.33 h

## Cn1c(=O)cc(N2CCC[C@@H](N)C2)n(Cc2cc(F)ccc2Br)c1=O
[1]
  half-life: 0.267 h
[2]
  half-life: 1.5 h

## Cn1c(=O)cc(N2CCC[C@@H](N)C2)n(Cc2cc(F)ccc2Cl)c1=O
[1]
  half-life: 0.883 h
[2]
  half-life: > 3.33 h

## Cn1c(=O)cc(N2CCC[C@@H](N)C2)n(Cc2ccc(F)cc2Cl)c1=O
[1]
  half-life: 1.12 h
[2]
  half-life: > 3.33 h

## Cn1c(=O)cc(N2CCC[C@@H](N)C2)n(Cc2cc(Cl)ccc2Cl)c1=O
[1]
  half-life: 0.167 h
[2]
  half-life: 2.75 h

## Cn1c(=O)cc(N2CCC[C@@](C)(N)C2)n(Cc2cc(F)ccc2C#N)c1=O
[1]
  half-life: 0.583 h
[2]
  half-life: > 3.33 h

## N#Cc1ccccc1Cn1c(N2CCC[C@@H](N)C2)nccc1=O.O=C(O)C(F)(F)F
[3]
  Vd: 4.8 L/kg
[4]
  Vd: 3 L/kg
[5]
  bioavailability: 54%
[6]
  AUC: 1400 ng·h/mL
[7]
  half-life: 2.8 h
[8]
  half-life: 1 h
[9]
  AUC: 1200 ng·h/mL
[10]
  bioavailability: 78%
[11]
  half-life: 2.4 h
[12]
  half-life: 0.74 h

## N#Cc1ccccc1Cn1c(N2CCC[C@@H](N)C2)ncc(F)c1=O.O=C(O)C(F)(F)F
[5]
  bioavailability: 73%
[8]
  half-life: 1.5 h
[13]
  Vd: 4.2 L/kg
[9]
  AUC: 3800 ng·h/mL
[14]
  half-life: 1.5 h

## Cl.N#Cc1ccccc1Cn1c(N2CCC[C@@H](N)C2)ncc(F)c1=O
[15]
  Vd: 3.5 L/kg
[16]
  bioavailability: 80%
[17]
  AUC: 3200 ng·h/mL
[18]
  half-life: 4.6 h
[19]
  half-life: 4.5 h

## Cl.N#Cc1ccccc1Cn1c(N2CCC[C@@H](N)C2)ncc(Cl)c1=O
[20]
  Vd: 3 L/kg
[21]
  half-life: 1.3 h
[22]
  half-life: 1.3 h
[23]
  Vd: 1.9 L/kg
[24]
  half-life: 5.2 h
[25]
  AUC: 8400 ng·h/mL
[26]
  bioavailability: 90%
[27]
  bioavailability: 65%
[28]
  AUC: 2800 ng·h/mL
[29]
  half-life: 4.8 h

## Cl.N#Cc1ccccc1Cn1c(N2CCC[C@@H](N)C2)ncc(Br)c1=O
[30]
  bioavailability: 74%
[31]
  Vd: 1.7 L/kg
[32]
  half-life: 1.7 h
[33]
  half-life: 1.1 h
[34]
  half-life: 6.1 h
[35]
  AUC: 14700 ng·h/mL
[36]
  Vd: 3.2 L/kg
[37]
  half-life: 5.3 h
[38]
  bioavailability: 105%
[39]
  AUC: 2400 ng·h/mL

## Cn1c(=O)cc(N2CCC[C@@H](N)C2)n(Cc2cc(F)ccc2C#N)c1=O.O=C(O)C(F)(F)F
[40]
  clearance: 18 mL/min/kg
[17]
  AUC: 2200 ng·h/mL
[41]
  half-life: 1.5 h
[42]
  bioavailability: 90%
[43]
  Vd: 4.4 L/kg
[44]
  half-life: 5.6 h
[19]
  half-life: 4.8 h

## Cl.Cn1c(=O)cc(N2CCC[C@@H](N)C2)n(Cc2cc(F)ccc2C#N)c1=O
[45]
  Vd: 3.3 L/kg
[46]
  half-life: 6.2 h
[47]
  AUC: 8000 ng·h/mL
[48]
  clearance: 10 mL/min/kg
[49]
  bioavailability: 105%

## Cn1c(=O)cc(N2CCC[C@@H](N)C2)n(Cc2ccccc2C#N)c1=O [ALOGLIPTIN]
[1]
  half-life: 3.33 h
[2]
  half-life: 2.02 h

## N#Cc1ccccc1Cn1c(N2CCC[C@@H](N)C2)ncc(F)c1=O.O=C(O)C(O)C(O)C(=O)O [TARTARATE]
[50]
  bioavailability: 110%
[51]
  AUC: 3100 ng·h/mL
[52]
  half-life: 4 h
[53]
  Vd: 3.2 L/kg
[54]
  half-life: 5.7 h

## Cn1c(=O)cc(N2CCC[C@@H](N)C2)n(Cc2cc(F)ccc2C#N)c1=O [TRELAGLIPTIN]
[1]
  half-life: > 3.33 h
[2]
  half-life: > 3.33 h
